From patent US20070259784A1, “Fungicidal Mixtures” (BASF Aktiengesellschaft, priority 2004, published 2007)

Test system: Puccinia recondita
Test: Protective activity against Puccinia recondita on wheat (brown rust of wheat)
Type: in vivo
Details: individual active compound, wheat leaves, visual rating
Protocol: The active compounds, separately or jointly, were prepared as a stock solution comprising 0.25% by weight of active compound in acetone or DMSO. 1% by weight of the emulsifier Uniperol® EL (welting agent having emulsifying and dispersant action based on ethoxylated alkylphenols) was added to this solution, and the mixture was diluted with water to the desired concentration.
Leaves of potted wheat seedlings of the cultivar “Kanzler” were sprayed to runoff point with an aqueous suspension having the concentration of active compound stated below. The next day, the treated plants were inoculated with a spore suspension of brown rust of wheat (Puccinia recondita). The plants were then placed in a chamber with high atmospheric humidity (90 to 95%) at 20 to 22° C. for 24 hours. During this time, the spores germinated and the germinal tubes penetrated into the leaf tissue. The next day, the test plants were returned to the greenhouse and cultivated at temperatures between 20 and 22° C. and at 65 to 70% relative atmospheric humidity for a further 7 days. The extent of the development of the rust fungus on the leaves was then determined visually.
The visually determined percentages of infected leaf areas were converted into efficacies in % of the untreated control:
The efficacy (E) is calculated as follows using Abbot's formula: E=(1−α/β)·100 α corresponds to the fungicidal infection of the treated plants in % and β corresponds to the fungicidal infection of the untreated (control) plants in %
An efficacy of 0 means that the infection level of the treated plants corresponds to that of the untreated control plants; an efficacy of 100 means that the treated plants were not infected.
The expected efficacies of mixtures of active compounds were determined using Colby's formula (Colby, S. R. “Calculating synergistic and antagonistic responses of herbicide combinations”, Weeds, 15, 20-22, 1967) and compared with the observed efficacies.
Colby's Formula: E=x+y−x·y/100 • E expected efficacy, expressed in % of the untreated control, when using the mixture of the active compounds A and B at the concentrations a and b • x efficacy, expressed in % of the untreated control, when using the active compound A at the concentration a
y efficacy, expressed in % of the untreated control, when using the active compound B at the concentration b

| SMILES | Efficacy in % of the untreated control (1 ppm in the spray liquor) [%] | Efficacy in % of the untreated control (2.5 ppm in the spray liquor) [%] | Efficacy in % of the untreated control (12.5 ppm in the spray liquor) [%] | Efficacy in % of the untreated control (5 ppm in the spray liquor) [%] |
| --- | --- | --- | --- | --- |
| CCN(CC)C1COC2(CCC(C(C)(C)C)CC2)O1 (centres unmarked) [compound II, (8-tert-butyl-1,4-dioxaspiro[4.5]dec-2-yl)diethylamine] | 0 | 0 | 0 |  |
| CC1CCN(c2c(-c3c(F)cc(F)cc3F)c(Cl)nc3ncnn23)CC1 [compound I, 5-chloro-7-(4-methylpiperidin-1-yl)-6-(2,4,6-trifluorophenyl)-[1,2,4]triazolo[1,5-a]pyrimidine] |  | 42 |  | 53 |
